For four compounds, IC50 results are on record in patent US9242997B2, “Tricyclic pyrazole sulphonamide compunds and methods of making and using same” (Zafgen, Inc., priority 2011, dated 2016).

T1 sequence (P50579 whole entry): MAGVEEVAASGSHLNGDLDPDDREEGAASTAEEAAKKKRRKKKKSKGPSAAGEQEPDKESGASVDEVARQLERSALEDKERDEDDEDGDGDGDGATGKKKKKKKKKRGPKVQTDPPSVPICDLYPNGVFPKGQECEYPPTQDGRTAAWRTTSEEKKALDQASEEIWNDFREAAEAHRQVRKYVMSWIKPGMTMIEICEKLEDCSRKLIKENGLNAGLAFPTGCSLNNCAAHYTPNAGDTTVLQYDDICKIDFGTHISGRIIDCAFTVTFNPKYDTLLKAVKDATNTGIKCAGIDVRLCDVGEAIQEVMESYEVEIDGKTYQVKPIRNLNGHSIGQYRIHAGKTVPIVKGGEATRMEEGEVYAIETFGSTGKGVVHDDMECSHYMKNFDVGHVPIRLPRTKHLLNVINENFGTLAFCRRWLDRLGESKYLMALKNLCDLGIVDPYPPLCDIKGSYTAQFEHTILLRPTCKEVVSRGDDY

The assay concerns the target T1, Human recombinant MetAP2 (Homo sapiens, UniProt P50579).
T1 construct: made in house; host or cells: Sf9 insect cells
Kind of assay: recombinant human MetAP2 inhibition assay (MAS substrate, amino acid oxidase/Amplex red fluorescence). It counts as biochemical. The following applies: manganese enzyme, 30 minutes at 25° C., pH 7.5, 0.75 mM MAS substrate, 1% DMSO. Here is the method: Compounds are tested for their capacity to inhibit recombinant human MetAP2 activity using the following assay.
Human recombinant MetAP2 expressed in Sf9 cells followed by affinity purification and EDTA treatment to remove endogenous active site cation was dialysed against MnCl2 to produce the manganese enzyme used in the assay. The assay was carried out for 30 minutes at 25° C. in 50 mM HEPES buffer containing 100 mM NaCl, pH 7.5 the presence of 0.75 mM Methionine-Alanine-Serine (MAS) substrate and 50 μg/ml amino acid oxidase using a dilution of purified MetAP2 giving>3-fold signal: noise. Cleavage of the substrate by MetAP2 and oxidation of free methionine by amino acid oxidase was detected and quantified using fluorescence generated by Amplex red (10-acetyl-3,7-dihydroxyphenoxazine) in combination with horseradish peroxidase which detects H2O2 released during the oxidation step. The fluorescent signal was detected using a multiwell fluorimeter. Compounds were diluted in DMSO prior to addition to assay buffer, the final DMSO concentration in the assay being 1%.
The IC50 is defined as the concentration at which a given compound achieves 50% inhibition of control. IC50 values are calculated using the XLfit software package (version 2.0.5).
`CCN(CC)C/C=C\c1cc(F)ccc1S(=O)(=O)Nc1ccc2c(ccn3nccc23)c1C(=O)O` [Example 1, 8-[2-((Z)-3-Diethylaminoprop-1-enyl)-4-fluorobenzenesulfonylamino]-pyrazolo[5,1-a]isoquinoline-7-carboxylic acid]: the IC50 (usually the concentration that gives 50% inhibition) was less than 0.05 µM. In the case of `CCN(CC)C/C=C\c1cc(F)ccc1S(=O)(=O)Nc1ccc2c(c1C(=O)O)OCc1cccn1-2` [Example 2, 7-[2-((Z)-3-Diethylaminoprop-1-enyl)-4-fluorobenzenesulfonylamino]-4H-benzo[b]pyrrolo[1,2-d][1,4]oxazine-6-carboxylic acid], the IC50 was less than 0.05 µM.

In the case of `CCN(CC)C/C=C\c1cc(F)ccc1S(=O)(=O)Nc1ccc2c(c1C(=O)O)CCn1nccc1-2` [Example 3, 8-[2-((Z)-3-Diethylaminoprop-1-enyl)-4-fluorobenzenesulfonylamino]-5,6-dihydropyrazolo[5,1-a]isoquinoline-7-carboxylic acid], the IC50 was 0.05 to 0.5 µM. For the compound `CCN(CC)C/C=C\c1cc(F)ccc1S(=O)(=O)Nc1ccc2c(c1C(=O)O)OCc1nccn1-2` [Example 4, 7-[2-((Z)-3-Diethylaminoprop-1-enyl)-4-fluorobenzenesulfonylamino]-4H-5-oxa-3,9b-diazacyclopenta[a]naphthalene-6-carboxylic acid], the IC50 was less than 0.05 µM.
